Data reported in the NIST ThermoML archive (doi:10.1021/je060200b).

Assay: molar heat capacity at constant pressure; xn = mol fraction of the nth substance listed
Settings: 101 kPa, Liquid

BrCCCCCBr [1,5-dibromopentane] + CCCCCCC
molar heat capacity at constant pressure [J/K/mol]
Settings	x1 = 0.1006	x1 = 0.1994	x1 = 0.3003	x1 = 0.4008	x1 = 0.5004	x1 = 0.5999	x1 = 0.6995	x1 = 0.8002	x1 = 0.899	x1 = 1
293.15 K	221.62	221.15	221	220.91	220.8	220.5	220.19	219.87	219.89	219.76
294.15 K	221.93	221.54	221.39	221.29	221.14	220.66	220.44	220.16	220.02	219.98
295.15 K	222.35	221.76	221.59	221.6	221.41	220.91	220.59	220.44	220.3	220.19
296.15 K	222.62	222.09	221.89	221.77	221.59	221.3	220.81	220.57	220.61	220.41
297.15 K	223.06	222.53	222.34	222.15	221.87	221.5	221.19	220.89	220.76	220.66
298.15 K	223.39	222.84	222.66	222.48	222.23	221.68	221.42	221.11	221.09	220.84
299.15 K	223.7	223.2	222.87	222.74	222.55	221.91	221.69	221.39	221.32	221.1
300.15 K	224.16	223.42	223.3	222.91	222.69	222.3	221.83	221.48	221.55	221.28
301.15 K	224.39	223.89	223.58	223.33	223.05	222.57	222.17	221.85	221.77	221.49
302.15 K	224.88	224.24	223.78	223.52	223.39	222.87	222.33	222.09	221.93	221.73
303.15 K	225.21	224.57	224.21	223.81	223.49	223.01	222.58	222.36	222.22	221.95
304.15 K	225.49	224.9	224.44	224.26	223.94	223.37	222.93	222.44	222.36	222.17
305.15 K	225.96	225.3	224.89	224.59	224.11	223.63	223.17	222.81	222.72	222.41
306.15 K	226.32	225.5	225.09	224.8	224.39	223.91	223.45	223.05	222.99	222.63
307.15 K	226.59	225.83	225.41	225.15	224.77	224.05	223.72	223.33	223.23	222.85
308.15 K	227.03	226.31	225.84	225.38	225.09	224.36	223.89	223.55	223.34	223.09
309.15 K	227.44	226.66	226.09	225.8	225.27	224.76	224.26	223.77	223.6	223.31
310.15 K	227.81	226.87	226.5	226.12	225.7	224.95	224.52	224.04	223.81	223.56
311.15 K	228.09	227.25	226.85	226.31	225.87	225.3	224.66	224.19	224.19	223.78
312.15 K	228.59	227.7	227.09	226.6	226.24	225.58	225.06	224.56	224.44	224.03
313.15 K	228.91	228.06	227.49	227.05	226.53	225.84	225.31	224.81	224.67	224.26
